In patent US20240327430A1 (Breakpoint Therapeutics GmbH, priority 2023, published 2024):

Target: truncated Polθ protein (Polθ-Hel containing the helicase domain (67-894)) (Homo sapiens (Human), UniProt O75417)
Assay: Polθ ATPase assay (Biological Assay 1, ADP-Glo luminescence)
Format: biochemical
Conditions: Polθ-Hel 0.5 nM, DNA substrate 500 nM, ATP 60 μM, 23° C.; read-out: Pole ATPase assay IC50
Experimental: The Polθ ATPase assay was used to evaluate inhibitors of Polθ ATPase activity, in vitro. Experiments were performed using a truncated Polθ protein (Polθ-Hel containing the helicase domain (67-894), ATP and a DNA single strand Oligo (5′-CTGTCCTGCATGATG-3′) in the Polθ assay buffer (20 mM Tis-HCl (pH 8.8), MgCl2 5 mM, tween20 0.01%, NP40 0.01%, BSA 0.01%, DTT 1 mM). 2 μL of assay buffer containing Pole-Hel protein (0.5 nM) and DNA substrate (500 nM) was transferred into assay ready plates, containing 0.04 μL of compounds diluted in DMSO. After a 30 minutes incubation at 23° C. in the dark, the reaction was triggered by adding 2 μL of ATP (60 μM), in assay buffer. After 60 minutes at 23° C., 4 μl of ADP-Glo™ Reagent (Glo 1) was added followed by 40 minutes of incubation, then 8 μl of ADP-Glom kinase Detection Reagent (Glo 2) followed by 60 minutes of incubation at 23° C. Luminescence was then measured using Tecan F200 infinite plate reader. Raw data were analysed using GeneData to generate IC50 values.
The Polθ ATPase assay described in Biological Assay 1 above was used to evaluate inhibitors of Polθ ATPase activity for the compounds described in the Experimental Part B above, in vitro.

truncated Polθ protein (Polθ-Hel containing the helicase domain (67-894)), sequence (O75417 67-894): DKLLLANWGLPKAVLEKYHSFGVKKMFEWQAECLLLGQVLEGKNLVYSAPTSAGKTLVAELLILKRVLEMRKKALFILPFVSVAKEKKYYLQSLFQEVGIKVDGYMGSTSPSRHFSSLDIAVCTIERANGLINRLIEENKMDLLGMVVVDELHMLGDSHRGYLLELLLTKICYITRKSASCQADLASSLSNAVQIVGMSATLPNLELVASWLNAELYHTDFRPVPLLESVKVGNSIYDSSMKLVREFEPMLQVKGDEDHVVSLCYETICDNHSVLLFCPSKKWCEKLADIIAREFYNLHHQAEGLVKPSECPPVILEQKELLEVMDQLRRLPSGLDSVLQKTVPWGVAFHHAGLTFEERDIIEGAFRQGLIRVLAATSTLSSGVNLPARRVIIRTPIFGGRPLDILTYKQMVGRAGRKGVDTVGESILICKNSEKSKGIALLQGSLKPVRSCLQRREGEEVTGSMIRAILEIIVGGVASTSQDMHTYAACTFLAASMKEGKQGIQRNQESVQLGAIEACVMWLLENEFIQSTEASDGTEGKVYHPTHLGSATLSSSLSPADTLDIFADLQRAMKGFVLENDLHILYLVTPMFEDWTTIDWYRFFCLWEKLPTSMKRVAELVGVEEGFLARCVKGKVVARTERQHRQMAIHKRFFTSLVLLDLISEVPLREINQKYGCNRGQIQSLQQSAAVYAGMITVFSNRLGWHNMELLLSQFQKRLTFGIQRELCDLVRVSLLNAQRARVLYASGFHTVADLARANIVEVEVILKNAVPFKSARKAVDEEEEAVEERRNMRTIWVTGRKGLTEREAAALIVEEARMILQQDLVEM

| IC50 | Compound |
| --- | --- |
| < 100 nM | COc1cnc(Cl)cc1-c1cc(C)ncc1C(=O)Nc1nc2ccc(S(=O)(=O)N(C)C)cc2s1 [Example 66, 2′-chloro-N-[6-(dimethylsulfamoyl)-1,3-benzothiazol-2-yl]-5′-methoxy-6-methyl-[4,4′-bipyridine]-3-carboxamide] |
| < 100 nM | COc1cnc(Cl)cc1-c1cc(C)ncc1C(=O)Nc1nc2ncc(N3CCOCC3)cc2s1 [Example 67, 2′-chloro-5′-methoxy-6-methyl-N-[6-(morpholin-4-yl)-[1,3]thiazolo[4,5-b]pyridin-2-yl]-[4,4′-bipyridine]-3-carboxamide] |
| < 100 nM | COc1cnc(Cl)cc1-c1cc(C)ncc1C(=O)Nc1nc2ccccc2s1 [Example 69, N-(1,3-benzothiazol-2-yl)-2′-chloro-5′-methoxy-6-methyl-[4,4′-bipyridine]-3-carboxamide] |
| < 100 nM | COc1cnc(Cl)cc1-c1cc(C)ncc1C(=O)Nc1nc2ncc(N3CCCCC3=O)cc2s1 [Example 70] |
| < 100 nM | COc1cnc(Cl)cc1-c1cc(C)ncc1C(=O)Nc1nc2ncc(N3CCC(O)CC3)cc2s1 [Example 71, 2′-chloro-N-[6-(4-hydroxypiperidin-1-yl)-[1,3]thiazolo[4,5-b]pyridin-2-yl]-5′-methoxy-6-methyl-[4,4′-bipyridine]-3-carboxamide] |
| < 100 nM | COc1ncc2nc(NC(=O)c3cnc(C)cc3-c3cc(Cl)ncc3OC)sc2n1 [Example 75, 2′-chloro-5′-methoxy-N-{5-methoxy-[1,3]thiazolo[5,4-d]pyrimidin-2-yl}-6-methyl-[4,4′-bipyridine]-3-carboxamide] |
| < 100 nM | COc1cnc(Cl)cc1-c1cc(C)ncc1C(=O)Nc1nc2cnc(N3CCC4(COC4)C3)nc2s1 [Example 76, 2′-chloro-5′-methoxy-6-methyl-N-(5-{2-oxa-6-azaspiro[3.4]octan-6-yl}-[1,3]thiazolo[5,4-d]pyrimidin-2-yl)-[4,4′-bipyridine]-3-carboxamide] |
| < 100 nM | COc1cnc(Cl)cc1-c1cc(C)ncc1C(=O)Nc1nc2cnc(NCC(C)(C)O)nc2s1 [Example 77, 2′-chloro-N-{5-[(2-hydroxy-2-methylpropyl)amino]-[1,3]thiazolo[5,4-d]pyrimidin-2-yl}-5′-methoxy-6-methyl-[4,4′-bipyridine]-3-carboxamide] |
| < 100 nM | COc1cnc(Cl)cc1-c1cc(C)ncc1C(=O)Nc1nc2cnc(NCC(C)C)nc2s1 [Example 78, 2′-chloro-5′-methoxy-6-methyl-N-{5-[(2-methylpropyl)amino]-[1,3]thiazolo[5,4-d]pyrimidin-2-yl}-[4,4′-bipyridine]-3-carboxamide] |
| < 100 nM | COc1cnc(Cl)cc1-c1cc(C)ncc1C(=O)Nc1nc2cnc(NC3CCC3)nc2s1 [Example 79, 2′-chloro-N-[5-(cyclobutylamino)-[1,3]thiazolo[5,4-d]pyrimidin-2-yl]-5′-methoxy-6-methyl-[4,4′-bipyridine]-3-carboxamide] |
| < 100 nM | COc1cnc(Cl)cc1-c1cc(C)ncc1C(=O)Nc1nc2cnc(N3CCC(OC)CC3)nc2s1 [Example 80, 2′-chloro-5′-methoxy-N-[5-(4-methoxypiperidin-1-yl)-[1,3]thiazolo[5,4-d]pyrimidin-2-yl]-6-methyl-[4,4′-bipyridine]-3-carboxamide] |
| < 100 nM | COc1cnc(Cl)cc1-c1cc(C)ncc1C(=O)Nc1nc2cnc(N3CC4(CC(O)C4)C3)nc2s1 [Example 81, 2′-chloro-N-(5-{6-hydroxy-2-azaspiro[3.3]heptan-2-yl}-[1,3]thiazolo[5,4-d]pyrimidin-2-yl)-5′-methoxy-6-methyl-[4,4′-bipyridine]-3-carboxamide] |
| < 100 nM | COc1cnc(Cl)cc1-c1cc(C)ncc1C(=O)Nc1nc2cnc(N3CC4(CCOC4)C3)nc2s1 [Example 82, 2′-chloro-5′-methoxy-6-methyl-N-(5-{6-oxa-2-azaspiro[3.4]octan-2-yl}-[1,3]thiazolo[5,4-d]pyrimidin-2-yl)-[4,4′-bipyridine]-3-carboxamide] |
| < 100 nM | COc1cnc(Cl)cc1-c1cc(C)ncc1C(=O)Nc1nc2ccc(S(C)(=N)=O)cc2s1 (stereo not drawn) [Example 83, 2′-chloro-N-{6-[imino(methyl)oxo-λ^6-sulfanyl]-1,3-benzothiazol-2-yl}-5′-methoxy-6-methyl-[4,4′-bipyridine]-3-carboxamide] |
| < 100 nM | COc1cnc(Cl)cc1-c1cc(C)ncc1C(=O)Nc1nc2ccc(N3CCCS3(=O)=O)cc2s1 [Example 84] |
| < 100 nM | COc1cnc(Cl)cc1-c1cc(C)ncc1C(=O)Nc1nc2ccc(N3CC[C@@H](O)CC3=O)cc2s1 [Example 85, 2′-chloro-N-{6-[(4R)-4-hydroxy-2-oxopiperidin-1-yl]-1,3-benzothiazol-2-yl}-5′-methoxy-6-methyl-[4,4′-bipyridine]-3-carboxamide] |
| < 100 nM | COc1cnc(Cl)cc1-c1cc(C)ncc1C(=O)Nc1nc2ccc(N3CCN(C)CC3=O)cc2s1 [Example 86, 2′-chloro-5′-methoxy-6-methyl-N-[6-(4-methyl-2-oxopiperazin-1-yl)-1,3-benzothiazol-2-yl]-[4,4′-bipyridine]-3-carboxamide] |
| < 100 nM | COc1cnc(Cl)cc1-c1cc(C)ncc1C(=O)Nc1nc2cnc(C3=CCOCC3)nc2s1 [Example 87, 2′-chloro-N-[5-(3,6-dihydro-2H-pyran-4-yl)-[1,3]thiazolo[5,4-d]pyrimidin-2-yl]-5′-methoxy-6-methyl-[4,4′-bipyridine]-3-carboxamide] |
| < 100 nM | COc1cnc(C(F)(F)F)cc1-c1cc(C)ncc1C(=O)Nc1nc2cnc(N3CCC(O)CC3)nc2s1 [Example 88, N-[5-(4-hydroxypiperidin-1-yl)-[1,3]thiazolo[5,4-d]pyrimidin-2-yl]-5′-methoxy-6-methyl-2′-(trifluoromethyl)-[4,4′-bipyridine]-3-carboxamide] |
| < 100 nM | COc1cnc(C(F)F)cc1-c1cc(C)ncc1C(=O)Nc1nc2cnc(N3CCOCC3)nc2s1 [Example 89] |
| < 100 nM | COc1cnc(Cl)cc1-c1cc(C)ncc1C(=O)Nc1nc2cnc(C(F)(F)F)nc2s1 [Example 90, 2′-chloro-5′-methoxy-6-methyl-N-[5-(trifluoromethyl)-[1,3]thiazolo[5,4-d]pyrimidin-2-yl]-[4,4′-bipyridine]-3-carboxamide] |
| < 100 nM | COc1cnc(Cl)cc1-c1cc(C)ncc1C(=O)Nc1nc2cnc(C)nc2s1 [Example 91, 2′-chloro-5′-methoxy-6-methyl-N-{5-methyl-[1,3]thiazolo[5,4-d]pyrimidin-2-yl}-[4,4′-bipyridine]-3-carboxamide] |
| < 100 nM | COc1cnc(C)cc1-c1cc(C)ncc1C(=O)Nc1nc2cnc(N3CCOCC3)nc2s1 [Example 92, 5′-methoxy-2′,6-dimethyl-N-[5-(morpholin-4-yl)-[1,3]thiazolo[5,4-d]pyrimidin-2-yl]-[4,4′-bipyridine]-3-carboxamide] |
| < 100 nM | COc1cnc(F)cc1-c1cc(C)ncc1C(=O)Nc1nc2cnc(N3CCOCC3)nc2s1 [Example 93, 2′-fluoro-5′-methoxy-6-methyl-N-[5-(morpholin-4-yl)-[1,3]thiazolo[5,4-d]pyrimidin-2-yl]-[4,4′-bipyridine]-3-carboxamide] |
| < 100 nM | COc1cnc(Cl)cc1-c1cc(C)ncc1C(=O)Nc1nc2cnc(N3CCCCC3=O)nc2s1 [Example 94, 2′-chloro-5′-methoxy-6-methyl-N-[5-(2-oxopiperidin-1-yl)-[1,3]thiazolo[5,4-d]pyrimidin-2-yl]-[4,4′-bipyridine]-3-carboxamide] |

| Compound | IC50 |
| --- | --- |
| COc1cnc(Cl)cc1-c1cc(C)ncc1C(=O)Nc1nc2ccc(N3CCOCC3)nc2s1 [Example 72, 2′-chloro-5′-methoxy-6-methyl-N-[5-(morpholin-4-yl)-[1,3]thiazolo[5,4-b]pyridin-2-yl]-[4,4′-bipyridine]-3-carboxamide] | < 100 nM |
| COc1cnc(Cl)cc1-c1cc(C)ncc1C(=O)Nc1nc2ccc(N3CCCCC3=O)nc2s1 [Example 73, 2′-chloro-5′-methoxy-6-methyl-N-[5-(2-oxopiperidin-1-yl)-[1,3]thiazolo[5,4-b]pyridin-2-yl]-[4,4′-bipyridine]-3-carboxamide] | < 100 nM |
| COc1cnc(Cl)cc1-c1cc(C)ncc1C(=O)Nc1nc2ccc(N3CCC(O)CC3)nc2s1 [Example 74, 2′-chloro-N-[5-(4-hydroxypiperidin-1-yl)-[1,3]thiazolo[5,4-b]pyridin-2-yl]-5′-methoxy-6-methyl-[4,4′-bipyridine]-3-carboxamide] | < 100 nM |

Same assay, conditions: Table B; compounds of Experimental Part B, in vitro; read-out: Polθ ATPase assay IC50

| IC50 | Compound |
| --- | --- |
| < 100 nM | COc1cnc(Cl)cc1-c1cc(C)ncc1C(=O)Nc1nc2cnc(NC[C@@H](C)O)nc2s1 [Example 95, 2′-chloro-N-(5-{[(2R)-2-hydroxypropyl]amino}-[1,3]thiazolo[5,4-d]pyrimidin-2-yl)-5′-methoxy-6-methyl-[4,4′-bipyridine]-3-carboxamide] |
| < 100 nM | COc1cnc(Cl)cc1-c1cc(C)ncc1C(=O)Nc1nc2cnc(NC[C@H](C)O)nc2s1 [Example 96, 2′-chloro-N-(5-{[(2S)-2-hydroxypropyl]amino}-[1,3]thiazolo[5,4-d]pyrimidin-2-yl)-5′-methoxy-6-methyl-[4,4′-bipyridine]-3-carboxamide] |
